Source: ChEMBL document CHEMBL1201862, “PubChem BioAssay data set” (2004)
Active and inactive are the calls of the source.

Legend:
[1] = target: Cytochrome P450 3A4 (Homo sapiens, UniProt P08684); settings: Potency;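 also: confirmatory qHTS run detecting inhibitors and substrates of CYP3A4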
[2] = blockade of melanocortin 4 receptor signaling – cell-based, plate reader, cherry pick, counter-screen for LGR2 antagonist project, dose response (AID 743444); type: functional;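 also: transfected HEK 293 cells stimulated with alpha-MSH peptide; potency of inhibitors of the alpha-MSH evoked signal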
[3] = system: HT-1080; assay: HT1080 cell viability loss – fluorescence readout (AID 620); type: functional, cell-based; settings: Homo sapiens
[4] = target: T1, Luciferin 4-monooxygenase (Photinus pyralis, UniProt P08659); assay: Counter Screen for Luciferase-based Assay Positives. [Related pubchem assays: 620, 618, 411 ]
T1 sequence (P08659 whole entry): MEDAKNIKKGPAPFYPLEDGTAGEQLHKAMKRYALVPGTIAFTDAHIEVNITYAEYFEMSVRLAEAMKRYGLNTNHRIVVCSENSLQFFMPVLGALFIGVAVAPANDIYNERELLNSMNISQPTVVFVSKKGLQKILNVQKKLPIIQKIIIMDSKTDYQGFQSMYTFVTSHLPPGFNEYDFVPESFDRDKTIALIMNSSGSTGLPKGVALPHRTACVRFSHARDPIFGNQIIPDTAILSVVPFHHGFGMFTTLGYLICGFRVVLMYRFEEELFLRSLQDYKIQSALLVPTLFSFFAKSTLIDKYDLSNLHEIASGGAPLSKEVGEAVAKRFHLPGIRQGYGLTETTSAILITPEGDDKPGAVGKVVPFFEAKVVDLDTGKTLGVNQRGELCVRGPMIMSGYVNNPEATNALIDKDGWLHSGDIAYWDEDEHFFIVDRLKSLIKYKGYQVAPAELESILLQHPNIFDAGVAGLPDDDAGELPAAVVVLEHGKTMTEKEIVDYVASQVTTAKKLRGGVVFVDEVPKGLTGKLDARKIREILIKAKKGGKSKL

[5] = blockers of bursicon-stimulated LGR2 cAMP reporter – cell-based, HEK293, CRE-luciferase reporter, cherry pick, set 2, dose response (AID 743343); type: functional;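 also: transfected cells were stimulated with diluted bursicon conditioned medium after compound addition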
[6] = Luminescence Cell-Based Dose Confirmation HTS to Identify Inhibitors of Platelet Dense Granule Release. [Related pubchem assays: 1663 (Primary HTS), 1678 (Summary of Project)]; type: functional
[7] = target: T2, RNA-binding protein pos-1 (Caenorhabditis elegans, UniProt G5EF15); assay: disruptors of C. elegans POS-1 RNA interaction – biochemical, fluorescence polarization, dose response (AID 1964);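 also: purified POS-1 fused to maltose binding protein made in E. coli; potency of compounds blocking POS-1 binding to fluorescent RNA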
T2 sequence (G5EF15 whole entry): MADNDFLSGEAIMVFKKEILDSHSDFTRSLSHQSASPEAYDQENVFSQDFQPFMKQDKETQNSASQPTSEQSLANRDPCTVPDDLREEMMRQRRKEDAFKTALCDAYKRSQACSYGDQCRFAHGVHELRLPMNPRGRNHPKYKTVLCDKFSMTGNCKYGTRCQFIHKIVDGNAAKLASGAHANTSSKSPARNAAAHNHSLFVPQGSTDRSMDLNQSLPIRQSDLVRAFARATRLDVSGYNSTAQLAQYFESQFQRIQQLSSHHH

[8] = target: T3, Lysine-specific demethylase 4C (Homo sapiens, UniProt Q9H3R0); assay: inhibition of JMJD2C H3K9me3 demethylation – biochemical, DELFIA europium, cherry-picked samples, dose response (AID 488835); type: functional
T3 sequence (Q9H3R0 whole entry): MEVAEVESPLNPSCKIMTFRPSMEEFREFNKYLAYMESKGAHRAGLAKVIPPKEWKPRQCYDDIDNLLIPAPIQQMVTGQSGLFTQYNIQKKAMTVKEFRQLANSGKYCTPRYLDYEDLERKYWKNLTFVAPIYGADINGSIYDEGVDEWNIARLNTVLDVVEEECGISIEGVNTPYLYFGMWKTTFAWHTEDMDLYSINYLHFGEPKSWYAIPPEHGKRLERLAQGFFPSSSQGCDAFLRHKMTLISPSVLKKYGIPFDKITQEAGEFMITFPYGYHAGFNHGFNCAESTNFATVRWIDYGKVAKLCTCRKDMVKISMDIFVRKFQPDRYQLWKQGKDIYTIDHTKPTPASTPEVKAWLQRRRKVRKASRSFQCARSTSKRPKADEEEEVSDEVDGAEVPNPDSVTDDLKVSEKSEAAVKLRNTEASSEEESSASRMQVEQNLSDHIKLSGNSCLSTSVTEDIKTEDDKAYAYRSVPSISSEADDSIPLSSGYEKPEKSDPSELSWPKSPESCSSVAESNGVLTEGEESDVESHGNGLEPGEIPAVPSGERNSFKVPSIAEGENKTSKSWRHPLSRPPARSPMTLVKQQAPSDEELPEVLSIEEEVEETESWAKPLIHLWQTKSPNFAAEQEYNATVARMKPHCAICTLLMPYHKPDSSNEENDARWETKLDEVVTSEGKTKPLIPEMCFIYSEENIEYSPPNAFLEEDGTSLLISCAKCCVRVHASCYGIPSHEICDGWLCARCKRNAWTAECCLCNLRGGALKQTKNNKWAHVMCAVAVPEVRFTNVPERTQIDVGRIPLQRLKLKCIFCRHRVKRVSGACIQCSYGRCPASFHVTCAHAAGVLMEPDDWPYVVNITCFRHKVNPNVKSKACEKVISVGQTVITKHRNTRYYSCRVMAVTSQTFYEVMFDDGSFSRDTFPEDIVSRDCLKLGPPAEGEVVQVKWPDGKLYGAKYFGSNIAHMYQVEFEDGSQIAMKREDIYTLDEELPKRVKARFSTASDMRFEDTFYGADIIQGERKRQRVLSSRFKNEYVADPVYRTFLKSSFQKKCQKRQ

[9] = target: T1, Luciferin 4-monooxygenase; assay: inhibition of purified Photinus pyralis luciferase – biochemical, luminescence, dose response (AID 1891)
[10] = system: HeLa; assay: viability loss in HeLa cells – cell-based, 24 h, cherry-picked samples, cytotoxicity control, dose response (AID 504726); type: functional; settings: Homo sapiens;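 also: potency for cytotoxicity as loss of luminescence signal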
[11] = target: T4, Zinc finger protein mex-5 (Caenorhabditis elegans, UniProt Q9XUB2); assay: potency of MEX-5 RNA-binding blockers – biochemical, C. elegans, fluorescence polarization, dose response (AID 1960)
T4 sequence (Q9XUB2 whole entry): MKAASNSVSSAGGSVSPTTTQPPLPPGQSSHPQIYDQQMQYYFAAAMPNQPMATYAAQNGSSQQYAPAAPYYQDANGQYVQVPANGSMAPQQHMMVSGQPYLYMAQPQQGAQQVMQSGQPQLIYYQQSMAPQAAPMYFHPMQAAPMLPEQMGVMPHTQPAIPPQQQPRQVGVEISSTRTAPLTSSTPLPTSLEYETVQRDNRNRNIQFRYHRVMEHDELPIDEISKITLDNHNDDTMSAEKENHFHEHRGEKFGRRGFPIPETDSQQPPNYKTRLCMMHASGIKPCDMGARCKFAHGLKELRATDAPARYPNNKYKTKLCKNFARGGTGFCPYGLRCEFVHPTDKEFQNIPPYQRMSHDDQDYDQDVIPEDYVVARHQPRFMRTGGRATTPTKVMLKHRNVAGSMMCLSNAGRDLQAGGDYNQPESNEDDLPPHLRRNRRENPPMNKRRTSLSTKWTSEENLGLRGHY

[12] = system: Vero; assay: viability of Vero cells under compound – cytotoxicity control for flavivirus capping enzyme inhibitors (AID 588742); type: functional; settings: Chlorocebus sabaeus
[13] = viability of PTEN-deleted HCT116 cells – cell-based, HCT116 PTEN knockout, dose response (AID 1047); type: functional;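 also: HCT116 colon tumor cells with PTEN knocked out; cells exposed to compound for 60 hours before readout; potency for loss of cell viability measured by luminescence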
[14] = HEK-293T cell viability reduction – luminescence, B-cell screen hits, cytotoxicity control for BCR NF-kB inhibitor project, dose response (AID 489021); type: functional, cell-based;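 also: HEK-293T cells carrying an NF-kB luciferase reporter; cells exposed to compound for about 14 hours before viability readout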
[15] = alpha-synuclein stem-loop luciferase translation blockers – H4 neuroglioma cells, luminescence, confirmation (AID 1988); type: functional, cell-based
[16] = HPDE-C7 pancreatic duct cell viability loss – fluorescence, HTS (AID 430); type: functional, cell-based; settings: Homo sapiens
[17] = viability loss of HPDE-C7K cells – cell-based, fluorescence, HTS, primary screen (AID 431); type: functional; settings: Homo sapiens
[18] = viability of HCT116 lacking mutant beta-catenin – cell-based, human colon tumor, dose response (AID 1045); type: functional;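 also: HCT116 colon tumor cells with beta catenin knocked out; cells exposed to compound for 60 hours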
[19] = luciferase reporter signal suppression in cells – H4 neuroglioma cells, luminescence, dose response (AID 1990); type: functional, cell-based
[20] = Luminescence Cell-Based Dose Response HTS to Identify Inhibitors of 5'UTR Stem-Loop Driven Prion Protein mRNA Translation in H4 Neuroglioblastoma Cells. [Related pubchem assays: 1827 (Project Summary), 1813 (Primary HTS)]; type: functional
[21] = microbe, parasite or virus in culture; type: functional; settings: Mycobacterium tuberculosis
[22] = target: T5, Endoribonuclease toxin MazF (Escherichia coli K-12, UniProt P0AE70); assay: substrate-only fluorescence increase artefacts – biochemical, single-stranded RNase substrate, counter-screen for MazEF activator project, dose response (AID 588502); type: functional
T5 sequence (P0AE70 whole entry): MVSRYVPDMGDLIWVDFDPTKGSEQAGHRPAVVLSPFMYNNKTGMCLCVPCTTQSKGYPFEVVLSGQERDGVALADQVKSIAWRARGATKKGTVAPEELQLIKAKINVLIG

[23] = target: Peroxisome proliferator-activated receptor gamma/Nuclear receptor coactivator 1 (Homo sapiens, UniProt P37231); type: functional;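 also: agonist potency as compounds enhance coactivator SRC-1 recruitment to PPARgamma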
[24] = target: Peroxisome proliferator-activated receptor gamma/Nuclear receptor coactivator 2 (Homo sapiens, UniProt P37231); type: functional;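 also: agonist potency for raising coactivator recruitment to the receptor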
Sequence of Peroxisome proliferator-activated receptor gamma/Nuclear receptor coactivator 2 (P37231 whole entry): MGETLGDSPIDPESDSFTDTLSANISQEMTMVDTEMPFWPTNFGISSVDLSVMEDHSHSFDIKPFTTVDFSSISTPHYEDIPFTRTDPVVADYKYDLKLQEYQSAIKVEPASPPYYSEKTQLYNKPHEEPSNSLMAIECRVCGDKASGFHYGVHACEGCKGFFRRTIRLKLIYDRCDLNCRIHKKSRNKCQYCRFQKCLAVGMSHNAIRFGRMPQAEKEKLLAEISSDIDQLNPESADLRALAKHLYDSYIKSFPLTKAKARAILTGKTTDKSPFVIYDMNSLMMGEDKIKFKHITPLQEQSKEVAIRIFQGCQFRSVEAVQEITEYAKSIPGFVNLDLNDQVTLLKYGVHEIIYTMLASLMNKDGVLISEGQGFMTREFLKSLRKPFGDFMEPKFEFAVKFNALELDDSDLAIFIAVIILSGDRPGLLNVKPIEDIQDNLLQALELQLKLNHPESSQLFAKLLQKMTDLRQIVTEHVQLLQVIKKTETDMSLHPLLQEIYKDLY
Sequence of Peroxisome proliferator-activated receptor gamma/Nuclear receptor coactivator 2 (Q15596 whole entry, further chain): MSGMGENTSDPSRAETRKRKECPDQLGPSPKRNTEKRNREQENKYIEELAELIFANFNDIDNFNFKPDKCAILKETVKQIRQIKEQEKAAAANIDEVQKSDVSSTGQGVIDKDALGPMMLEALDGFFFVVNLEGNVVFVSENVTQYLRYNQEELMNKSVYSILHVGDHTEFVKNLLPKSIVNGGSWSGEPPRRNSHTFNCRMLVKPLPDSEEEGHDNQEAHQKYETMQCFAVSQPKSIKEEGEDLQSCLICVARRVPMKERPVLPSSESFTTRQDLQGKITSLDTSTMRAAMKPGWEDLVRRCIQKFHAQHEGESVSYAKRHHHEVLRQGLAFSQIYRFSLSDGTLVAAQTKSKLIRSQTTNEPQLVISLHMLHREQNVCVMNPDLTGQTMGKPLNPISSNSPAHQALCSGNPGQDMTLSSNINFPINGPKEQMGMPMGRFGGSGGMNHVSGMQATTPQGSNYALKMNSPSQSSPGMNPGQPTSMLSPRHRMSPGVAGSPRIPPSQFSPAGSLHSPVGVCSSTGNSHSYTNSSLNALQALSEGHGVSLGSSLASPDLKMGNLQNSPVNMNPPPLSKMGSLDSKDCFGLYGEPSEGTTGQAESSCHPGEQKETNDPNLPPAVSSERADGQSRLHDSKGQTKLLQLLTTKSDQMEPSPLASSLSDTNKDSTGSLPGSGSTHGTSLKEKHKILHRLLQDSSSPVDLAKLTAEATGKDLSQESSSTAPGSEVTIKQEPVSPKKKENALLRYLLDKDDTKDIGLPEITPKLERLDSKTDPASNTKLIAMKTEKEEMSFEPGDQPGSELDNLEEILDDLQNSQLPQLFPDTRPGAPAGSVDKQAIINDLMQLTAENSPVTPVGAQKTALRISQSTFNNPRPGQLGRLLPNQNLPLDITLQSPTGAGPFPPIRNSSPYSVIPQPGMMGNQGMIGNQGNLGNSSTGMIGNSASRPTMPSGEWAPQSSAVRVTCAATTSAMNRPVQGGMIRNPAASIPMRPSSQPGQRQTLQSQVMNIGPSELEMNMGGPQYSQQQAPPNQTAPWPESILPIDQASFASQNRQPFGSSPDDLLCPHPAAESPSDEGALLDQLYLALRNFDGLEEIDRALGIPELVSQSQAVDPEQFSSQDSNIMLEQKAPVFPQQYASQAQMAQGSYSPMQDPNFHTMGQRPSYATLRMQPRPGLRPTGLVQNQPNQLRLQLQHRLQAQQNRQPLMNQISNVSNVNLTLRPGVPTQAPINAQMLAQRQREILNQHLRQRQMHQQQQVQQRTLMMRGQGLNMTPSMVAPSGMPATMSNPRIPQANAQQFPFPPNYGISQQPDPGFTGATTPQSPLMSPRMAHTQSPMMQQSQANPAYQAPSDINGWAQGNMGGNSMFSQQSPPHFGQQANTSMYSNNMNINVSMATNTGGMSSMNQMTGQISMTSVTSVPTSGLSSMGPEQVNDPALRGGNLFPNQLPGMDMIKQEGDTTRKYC

[25] = target: T6, Corticotropin-releasing factor receptor 2/Corticotropin-releasing factor-binding protein (Homo sapiens, UniProt P24387+Q13324); assay: activators of CRF receptor 2 with binding protein – uHTS hits, confirmation (AID 602473); type: functional; settings: read-out: EC50_Mean
T6 sequence (Q13324 whole entry): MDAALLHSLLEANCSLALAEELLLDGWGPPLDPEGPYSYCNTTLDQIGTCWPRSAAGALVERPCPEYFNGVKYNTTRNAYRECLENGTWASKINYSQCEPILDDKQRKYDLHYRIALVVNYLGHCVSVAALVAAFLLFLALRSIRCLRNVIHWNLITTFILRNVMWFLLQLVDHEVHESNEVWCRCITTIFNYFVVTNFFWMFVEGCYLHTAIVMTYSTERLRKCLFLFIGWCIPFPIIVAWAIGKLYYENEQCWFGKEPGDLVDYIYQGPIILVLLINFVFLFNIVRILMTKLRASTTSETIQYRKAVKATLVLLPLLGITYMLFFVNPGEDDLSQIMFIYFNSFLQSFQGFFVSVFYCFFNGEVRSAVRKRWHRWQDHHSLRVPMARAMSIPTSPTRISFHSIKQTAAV
T6 sequence (P24387 whole entry): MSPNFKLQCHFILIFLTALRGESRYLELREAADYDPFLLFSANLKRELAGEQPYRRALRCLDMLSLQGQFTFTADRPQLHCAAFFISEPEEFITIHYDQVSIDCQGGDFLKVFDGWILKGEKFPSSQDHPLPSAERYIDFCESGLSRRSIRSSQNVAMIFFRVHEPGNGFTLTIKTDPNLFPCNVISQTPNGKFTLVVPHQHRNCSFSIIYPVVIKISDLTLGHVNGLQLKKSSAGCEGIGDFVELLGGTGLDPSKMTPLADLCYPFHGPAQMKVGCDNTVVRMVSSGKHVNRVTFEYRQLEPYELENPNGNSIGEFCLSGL

[26] = target: T7, ORF 73 (Human herpesvirus 8, UniProt O40947); assay: KSHV LANA DNA-binding disruption – biochemical, fluorescence polarization, cherry-picked samples, dose response (AID 504725); set-up: species or system Human gammaherpesvirus 8;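 also: fluorescence polarization of a labeled DNA duplex reporting LANA DNA binding; potency is for inhibitors that block LANA binding to the DNA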
T7 sequence (O40947 whole entry): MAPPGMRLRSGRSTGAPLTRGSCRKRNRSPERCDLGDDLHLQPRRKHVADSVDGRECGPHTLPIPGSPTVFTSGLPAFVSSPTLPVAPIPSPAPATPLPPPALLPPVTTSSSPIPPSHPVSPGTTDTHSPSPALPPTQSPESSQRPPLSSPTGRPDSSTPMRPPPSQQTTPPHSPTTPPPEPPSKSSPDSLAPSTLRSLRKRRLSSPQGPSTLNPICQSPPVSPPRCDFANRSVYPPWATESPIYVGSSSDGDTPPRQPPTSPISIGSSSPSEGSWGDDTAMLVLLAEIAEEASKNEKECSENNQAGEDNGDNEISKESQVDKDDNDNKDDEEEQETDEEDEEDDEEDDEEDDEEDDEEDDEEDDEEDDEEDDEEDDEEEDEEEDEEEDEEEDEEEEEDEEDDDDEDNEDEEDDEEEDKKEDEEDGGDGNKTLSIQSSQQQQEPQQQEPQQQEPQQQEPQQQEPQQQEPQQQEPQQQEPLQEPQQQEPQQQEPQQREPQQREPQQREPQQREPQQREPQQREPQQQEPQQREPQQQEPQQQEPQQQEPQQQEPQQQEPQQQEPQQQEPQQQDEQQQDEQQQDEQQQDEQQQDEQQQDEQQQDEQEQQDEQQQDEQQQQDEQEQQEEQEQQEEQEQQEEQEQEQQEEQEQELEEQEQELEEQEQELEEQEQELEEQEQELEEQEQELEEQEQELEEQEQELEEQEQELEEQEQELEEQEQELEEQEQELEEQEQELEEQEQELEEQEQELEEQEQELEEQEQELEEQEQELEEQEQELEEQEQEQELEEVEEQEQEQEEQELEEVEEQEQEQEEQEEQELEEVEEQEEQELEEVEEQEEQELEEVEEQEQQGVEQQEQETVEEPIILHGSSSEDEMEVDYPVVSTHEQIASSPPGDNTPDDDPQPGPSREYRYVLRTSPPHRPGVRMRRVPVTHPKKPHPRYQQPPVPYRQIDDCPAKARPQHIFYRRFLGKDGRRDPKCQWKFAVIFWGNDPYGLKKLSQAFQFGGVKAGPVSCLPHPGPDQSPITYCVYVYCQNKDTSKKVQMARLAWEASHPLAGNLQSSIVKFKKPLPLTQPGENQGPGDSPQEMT

[27] = target: T5, Endoribonuclease toxin MazF; assay: activation of MazEF endoribonuclease cleavage – biochemical, fluorescence, single-stranded RNA substrate, uHTS hits, dose response (AID 588481); type: functional
[28] = target: Peroxisome proliferator-activated receptor gamma/Nuclear receptor coactivator 3 (Homo sapiens, UniProt P37231); type: functional;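 also: agonist potency for raising coactivator recruitment to the receptor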
Sequence of Peroxisome proliferator-activated receptor gamma/Nuclear receptor coactivator 3 (P37231 whole entry): as the sequence (P37231 whole entry) above
Sequence of Peroxisome proliferator-activated receptor gamma/Nuclear receptor coactivator 3 (Q9Y6Q9 whole entry, further chain): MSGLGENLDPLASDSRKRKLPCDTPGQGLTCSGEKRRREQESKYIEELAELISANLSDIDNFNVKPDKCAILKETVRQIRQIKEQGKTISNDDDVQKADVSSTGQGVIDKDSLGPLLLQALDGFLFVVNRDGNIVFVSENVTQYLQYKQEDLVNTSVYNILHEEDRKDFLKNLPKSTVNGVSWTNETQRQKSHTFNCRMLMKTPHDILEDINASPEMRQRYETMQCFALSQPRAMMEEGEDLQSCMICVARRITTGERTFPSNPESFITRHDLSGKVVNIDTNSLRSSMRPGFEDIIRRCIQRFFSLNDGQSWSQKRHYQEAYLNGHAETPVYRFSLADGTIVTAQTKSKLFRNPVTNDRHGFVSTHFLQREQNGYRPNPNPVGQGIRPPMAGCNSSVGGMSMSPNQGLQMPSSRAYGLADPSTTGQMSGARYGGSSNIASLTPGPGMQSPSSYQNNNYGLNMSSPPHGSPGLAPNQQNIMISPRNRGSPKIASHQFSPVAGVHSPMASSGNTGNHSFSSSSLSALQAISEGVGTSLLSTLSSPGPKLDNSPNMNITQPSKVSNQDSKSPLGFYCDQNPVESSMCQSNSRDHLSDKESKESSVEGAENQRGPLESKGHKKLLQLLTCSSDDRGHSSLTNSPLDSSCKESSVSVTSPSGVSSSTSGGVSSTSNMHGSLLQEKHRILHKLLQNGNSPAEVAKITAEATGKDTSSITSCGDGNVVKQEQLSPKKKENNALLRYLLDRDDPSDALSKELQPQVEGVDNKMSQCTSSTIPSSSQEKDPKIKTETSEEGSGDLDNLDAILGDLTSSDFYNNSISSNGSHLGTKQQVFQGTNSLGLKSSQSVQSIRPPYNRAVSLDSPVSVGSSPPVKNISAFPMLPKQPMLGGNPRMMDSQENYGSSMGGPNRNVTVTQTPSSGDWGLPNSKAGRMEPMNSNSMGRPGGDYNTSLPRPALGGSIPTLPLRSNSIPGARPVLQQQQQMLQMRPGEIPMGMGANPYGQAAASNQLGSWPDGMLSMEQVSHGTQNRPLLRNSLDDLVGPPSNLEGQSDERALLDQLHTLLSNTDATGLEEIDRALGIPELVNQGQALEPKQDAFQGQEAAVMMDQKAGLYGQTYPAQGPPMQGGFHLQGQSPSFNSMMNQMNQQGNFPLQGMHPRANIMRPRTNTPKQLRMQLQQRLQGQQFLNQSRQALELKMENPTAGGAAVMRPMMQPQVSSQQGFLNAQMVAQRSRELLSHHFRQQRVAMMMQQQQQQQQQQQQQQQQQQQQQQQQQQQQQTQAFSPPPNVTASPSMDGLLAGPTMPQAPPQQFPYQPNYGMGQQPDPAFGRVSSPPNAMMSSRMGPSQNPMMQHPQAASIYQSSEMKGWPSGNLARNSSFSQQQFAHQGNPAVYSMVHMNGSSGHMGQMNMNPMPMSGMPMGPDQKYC

Sequence of Cytochrome P450 3A4 (P08684 whole entry): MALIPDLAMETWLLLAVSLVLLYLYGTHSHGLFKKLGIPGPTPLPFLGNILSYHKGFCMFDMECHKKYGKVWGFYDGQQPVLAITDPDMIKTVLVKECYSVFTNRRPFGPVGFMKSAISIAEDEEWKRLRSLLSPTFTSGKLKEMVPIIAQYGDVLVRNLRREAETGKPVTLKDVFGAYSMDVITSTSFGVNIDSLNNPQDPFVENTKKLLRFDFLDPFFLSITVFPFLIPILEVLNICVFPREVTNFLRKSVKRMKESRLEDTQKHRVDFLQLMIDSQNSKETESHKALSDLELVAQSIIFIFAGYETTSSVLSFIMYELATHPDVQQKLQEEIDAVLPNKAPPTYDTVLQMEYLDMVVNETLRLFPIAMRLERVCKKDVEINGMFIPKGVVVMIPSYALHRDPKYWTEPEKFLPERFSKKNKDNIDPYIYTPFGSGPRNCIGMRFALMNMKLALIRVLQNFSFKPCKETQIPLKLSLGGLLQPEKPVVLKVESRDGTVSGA

C[C@@H]1CCC2[C@](C)(CO)C(O)CC[C@@]2(C)[C@@]12CC[C@](CO)(CCO)O2 (some centres undefined)
AC50 [1]: 25.1 µM (inconclusive)

Oc1ccc(Cl)c(Cl)c1Cl
AC50 [1]: 15.8 µM (inconclusive)

CCCCCc1ccc(-c2ccc(C(=O)O)cc2)nc1
AC50 [2]: 14.1 µM (active) | EC50 [3]: > 50 µM (not active) | EC50 [4]: 43.4 µM (active) | AC50 [5]: 13.9 µM (active)

Cc1cc(NS(=O)(=O)c2ccc(Nc3nc(-c4sc(N)nc4C)cs3)cc2)no1
EC50 [6]: > 112 µM (not active) | EC50 [7]: 9.62 µM (active) | AC50 [8]: 8.48 µM (active) | EC50 [9]: > 112 µM (not active) | AC50 [10]: 52.4 µM (active) | EC50 [11]: 7.76 µM (active)

CC1CC(C)(C)Nc2ccc(OC(=O)c3ccco3)cc21 (centres undefined)
CC50 [12]: > 40 µM (active) | EC50 [13]: 8.58 µM (active) | IC50 [14]: 50.9 µM (inactive) | EC50 [15]: 20.1 µM (active) | EC50 [3]: > 50 µM (not active) | EC50 [16]: 10.1 µM (active) | EC50 [17]: 9.77 µM (active) | EC50 [18]: 8.18 µM (active) | EC50 [4]: < 0.2 µM (active) | EC50 [19]: 8.25 µM (active) | EC50 [20]: 14.8 µM (active) | CC50 [21]: 30 µM (active)

Clc1ccc(-c2nnc3sc(-c4ccc(Br)o4)nn23)cc1
EC50 [22]: > 99 µM (inactive) | EC50 [23]: > 79.4 µM (not active) | EC50 [24]: 39.7 µM (not active) | EC50 [25]: > 53 µM (inactive) | AC50 [26]: 27.1 µM (active) | EC50 [27]: > 99 µM (inactive) | EC50 [28]: > 79.4 µM (not active)

CN(C)S(=O)(=O)c1cccc(N2C(=O)CC3(CCCCC3)CC2=O)c1
AC50 [26]: 76.9 µM (active) | AC50 [10]: > 350 µM (inactive)

CC(C)=CCC1=C(O)C(=O)c2ccccc2C1=O [LAPACHOL]
AC50 [1]: 25.1 µM (inconclusive)
